Measurements: ChEMBL document CHEMBL1201862, “PubChem BioAssay data set” (2004)
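Cultured in 96-well plates, cells were exposed to test compound for 48 hours across five concentrations. GI50: concentration for 50% inhibition of growth.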 Active and inactive are the calls of the source. Cut-off read from the data, not from the text of the source: active = GI50 up to about 1.1 µM and inactive = higher.

Tests used:
Test in all cases: NCI-60 cell line screen, 48 h
[1] = tested on: NCI-H23
[2] = tested on: SN12C
[3] = tested on: MOLT-4
[4] = tested on: SNB-19
[5] = tested on: Malme-3M
[6] = tested on: SW-620
[7] = tested on: HCT-15
[8] = tested on: A549
[9] = tested on: K562
[10] = tested on: OVCAR-3
[11] = tested on: RXF 393
[12] = tested on: NCI-H226
[13] = tested on: RPMI-8226
[14] = tested on: OVCAR-4
[15] = tested on: HOP-62
[16] = tested on: EKVX
[17] = tested on: HCC 2998
[18] = tested on: NCI-H522

SMILES	GI50 [1]	GI50 [2]	GI50 [3]	GI50 [4]	GI50 [5]	GI50 [6]	GI50 [7] [µM]	GI50 [8]	GI50 [9]	GI50 [10]	GI50 [11]	GI50 [12]	GI50 [13]	GI50 [14]	GI50 [15]	GI50 [16]	GI50 [17]	GI50 [18]
O=C1C2Nc3ccccc3SC2C(=O)N1c1ccccc1C(F)(F)F (stereo unspecified)	24 µM (inactive)	27.2 µM (inactive)	23.2 µM (inactive)	18.1 µM (inactive)	19.7 µM (inactive)	21.4 µM (inactive)	15.9	20.2 µM (inactive)	3.99 µM (inactive)	22.3 µM (inactive)	7.45 µM (inactive)	43.1 µM (inactive)	29 µM (inactive)	43.1 µM (inactive)	25.4 µM (inactive)	54.8 µM (inactive)	16.7 µM (inactive)	15.3 µM (inactive)
Cn1cc2c(n1)c(N/N=C/c1ccccc1)nn1nnnc21	> 100 µM (inactive)	> 100 µM (inactive)	> 100 µM (inactive)	> 100 µM (inactive)	> 100 µM (inactive)	> 100 µM (inactive)	> 100	> 100 µM (inactive)	> 100 µM (inactive)	> 100 µM (inactive)	> 100 µM (inactive)	> 100 µM (inactive)	> 100 µM (inactive)	> 100 µM (inactive)	> 100 µM (inactive)	> 100 µM (inactive)	> 100 µM (inactive)	
C/C(=N/NC(N)=S)C(CN1CCOCC1)C(C1=C(O)c2ccccc2OC1)c1ccccc1 (stereo unspecified)	> 100 µM (inactive)	> 100 µM (inactive)	39 µM (inactive)	> 100 µM (inactive)	69 µM (inactive)	> 100 µM (inactive)		> 100 µM (inactive)	93.1 µM (inactive)	> 100 µM (inactive)	> 100 µM (inactive)	> 100 µM (inactive)	90.2 µM (inactive)	> 100 µM (inactive)		> 100 µM (inactive)	> 100 µM (inactive)	> 100 µM (inactive)
CC(=O)OC1[C@H]2c3cc4c(cc3CN3CCC(C[C@@H]1OC(C)=O)C23)OCO4 (stereo partly specified)	> 75 µM (inactive)	> 75 µM (inactive)	> 75 µM (inactive)	> 75 µM (inactive)	> 75 µM (inactive)	> 75 µM (inactive)	> 75	> 75 µM (inactive)	> 75 µM (inactive)	> 75 µM (inactive)	> 75 µM (inactive)	8.13 µM (inactive)	> 75 µM (inactive)		> 75 µM (inactive)	> 75 µM (inactive)	> 75 µM (inactive)	> 75 µM (inactive)
COc1ccc(NCC#N)cc1	> 100 µM (inactive)	> 100 µM (inactive)	> 100 µM (inactive)	> 100 µM (inactive)	> 100 µM (inactive)	> 100 µM (inactive)	> 100	> 100 µM (inactive)	> 100 µM (inactive)	> 100 µM (inactive)	> 100 µM (inactive)		> 100 µM (inactive)			> 100 µM (inactive)	> 100 µM (inactive)	> 100 µM (inactive)
CSC(C1c2ccccc2N(C)c2[nH]c(=O)n(C)c(=O)c21)S(=O)(=O)c1ccc(C)cc1 (stereo unspecified)	54.8 µM (inactive)	> 100 µM (inactive)	40 µM (inactive)	> 100 µM (inactive)	> 100 µM (inactive)	> 100 µM (inactive)	64.3	> 100 µM (inactive)	43.6 µM (inactive)	> 100 µM (inactive)		> 100 µM (inactive)	> 10 µM (inactive)	> 100 µM (inactive)	> 100 µM (inactive)	33.6 µM (inactive)	> 100 µM (inactive)	20.1 µM (inactive)
O=C(CSc1nnc(Cc2ccccc2)o1)Nc1ccc([N+](=O)[O-])cc1	89.7 µM (inactive)	> 100 µM (inactive)	87.3 µM (inactive)		> 100 µM (inactive)		> 100	59.4 µM (inactive)	40.2 µM (inactive)	> 100 µM (inactive)	> 100 µM (inactive)	> 100 µM (inactive)	> 100 µM (inactive)	> 100 µM (inactive)	> 100 µM (inactive)		> 100 µM (inactive)	82.2 µM (inactive)
CC1(C)OC(=O)C(C#N)=C1/C=C/c1coc2ccc(Cl)cc2c1=O	21 µM (inactive)	30.1 µM (inactive)	26.1 µM (inactive)	30.4 µM (inactive)	26.2 µM (inactive)	39.2 µM (inactive)	27.4	45.7 µM (inactive)	27.5 µM (inactive)	18.4 µM (inactive)		29.4 µM (inactive)	26.9 µM (inactive)	24.6 µM (inactive)	23.7 µM (inactive)	47 µM (inactive)	34.8 µM (inactive)	74 µM (inactive)
Fc1cccc(F)c1C1SCc2nc3ccccc3n21 (stereo unspecified) [THIAZOLOBENZIMIDAZOLE]	45.5 µM (inactive)	> 100 µM (inactive)	35.3 µM (inactive)	> 100 µM (inactive)	55.5 µM (inactive)	> 100 µM (inactive)	54.5	> 100 µM (inactive)	36.5 µM (inactive)	47.4 µM (inactive)	> 100 µM (inactive)	97.5 µM (inactive)	35.2 µM (inactive)	> 100 µM (inactive)	> 100 µM (inactive)	64.6 µM (inactive)	> 100 µM (inactive)	53.7 µM (inactive)
COc1cccc(NC(=O)CC(=O)N2NC(c3ccccc3)C(/N=N/c3cccc(C(=O)O)c3)C2=O)c1 (stereo unspecified)	> 100 µM (inactive)	> 100 µM (inactive)	86.3 µM (inactive)	28.1 µM (inactive)	> 100 µM (inactive)	> 100 µM (inactive)		> 100 µM (inactive)		38.2 µM (inactive)	49.5 µM (inactive)	> 100 µM (inactive)	70 µM (inactive)	> 100 µM (inactive)	> 100 µM (inactive)	> 100 µM (inactive)	> 100 µM (inactive)	
N=C(N)N/N=C(/c1nc2ccc([N+](=O)[O-])cc2[nH]c1=O)C(O)c1ccc([N+](=O)[O-])cc1 (stereo unspecified)	> 100 µM (inactive)	> 100 µM (inactive)	> 100 µM (inactive)	> 100 µM (inactive)	83.8 µM (inactive)	> 100 µM (inactive)	11.5	60.8 µM (inactive)	> 100 µM (inactive)	94.2 µM (inactive)	> 100 µM (inactive)	> 100 µM (inactive)	> 100 µM (inactive)	> 100 µM (inactive)	37.8 µM (inactive)		28.5 µM (inactive)	4.54 µM (inactive)
O=C(Nc1ccc(Cl)c(C(F)(F)F)c1)C(=O)C(C(=O)/C=C/c1ccccc1)C1OC(=O)c2ccccc21 (stereo unspecified)	> 100 µM (inactive)	> 100 µM (inactive)	> 100 µM (inactive)	> 100 µM (inactive)	> 100 µM (inactive)	> 100 µM (inactive)	> 100	> 100 µM (inactive)	> 100 µM (inactive)	> 100 µM (inactive)	93.5 µM (inactive)	> 100 µM (inactive)	72.8 µM (inactive)	> 100 µM (inactive)	> 100 µM (inactive)	> 100 µM (inactive)	> 100 µM (inactive)	63.1 µM (inactive)
COC(=O)/C=C1\CCC2[C@@H](C(=O)CC3[C@]2(C)CCC[C@@]3(C)C(=O)OC)C1C (stereo partly specified)	> 10 µM (inactive)	24.8 µM (inactive)	6.37 µM (inactive)	32.4 µM (inactive)	21.1 µM (inactive)	26.6 µM (inactive)	29.8	20.2 µM (inactive)	15 µM (inactive)	22.7 µM (inactive)		20 µM (inactive)	3.93 µM (inactive)	22.5 µM (inactive)	28.9 µM (inactive)	27.3 µM (inactive)	34.6 µM (inactive)	16.5 µM (inactive)
O=c1c2ccccc2nc(-c2ccccc2)n1NC(=S)Nc1cccc(Cl)c1	> 100 µM (inactive)	> 100 µM (inactive)	> 100 µM (inactive)		> 100 µM (inactive)	> 100 µM (inactive)	> 100	> 100 µM (inactive)	> 100 µM (inactive)		27.2 µM (inactive)	> 100 µM (inactive)	> 100 µM (inactive)	> 100 µM (inactive)	60.3 µM (inactive)			46.7 µM (inactive)
O=[N+]([O-])c1ccc(-c2ccc(-c3csc(Nc4ccccc4)n3)o2)cc1	20.2 µM (inactive)	18.6 µM (inactive)	3.62 µM (inactive)	40 µM (inactive)	17 µM (inactive)	15.6 µM (inactive)	19.7	> 55 µM (inactive)	7.59 µM (inactive)	19.3 µM (inactive)		40.6 µM (inactive)	12.2 µM (inactive)	17.3 µM (inactive)	> 68.4 µM (inactive)	19.1 µM (inactive)	25.1 µM (inactive)	14.6 µM (inactive)
O=C(/C=N/c1ccccc1C(=O)[O-])c1cccs1.O=C(/C=N/c1ccccc1C(=O)[O-])c1cccs1.[Zn+2]	88.3 µM (inactive)	> 10 µM (inactive)	34 µM (inactive)	43.1 µM (inactive)	> 10 µM (inactive)	67.5 µM (inactive)	> 100	73.8 µM (inactive)	29.2 µM (inactive)	15.4 µM (inactive)					> 100 µM (inactive)		> 10 µM (inactive)	21.1 µM (inactive)
c1ccc(N2CCN(CCN3CCc4c([nH]c5ccccc45)C3c3cccnc3)CC2)cc1 (stereo unspecified)	> 100 µM (inactive)	> 100 µM (inactive)	> 100 µM (inactive)	> 100 µM (inactive)		> 100 µM (inactive)	> 100	> 100 µM (inactive)	7.14 µM (inactive)	> 100 µM (inactive)			> 100 µM (inactive)	> 100 µM (inactive)	89.1 µM (inactive)	> 100 µM (inactive)	> 100 µM (inactive)	> 100 µM (inactive)
